Here are results for 26 molecules from patent US11603355B2, “Charged ion channel blockers and methods for use” (Nocion Therapeutics, Inc., priority 2019, dated 2023).

One data set deals with T1, NaV1.7 (Homo sapiens, UniProt Q15858).
T1 construct: expressed in transfected cells; host or cells: HEK293 (tetracycline-inducible)
Briefly: Manual patch clamp, internal block of NaV1.7 current. Conditions: compound in internal solution, HEK293 cells, read-out: Nav1.7 Intracellular Inhibition; for inhibition at 10 µM: % inhibition at 10 μM test concentration; for inhibition at 3 µM: % inhibition at 3 μM test concentration. Type of data set: cell-based. Here is the method: Representative compounds of the invention were synthesized according to the described methods and tested for the ability to inhibit voltage-gated sodium channels.
NaV1.7 was expressed in HEK293 cells upon induction with tetracycline. Cells were cultured in DMEM containing 10% dialyzed Fetal Bovine Serum (VWR, Radnor, Pa.), 1% Glutamax (VWR, Radnor, Pa.), 1% Penicillin-Streptomycin (VWR, Radnor, Pa.), 100 mg/L Hygromycin (Thermo Fisher Scientific, Waltham, Mass. and 5 mg/L Blasticidin (Alfa Aesar, Haverhill, Mass.). Cells were grown and maintained at 37° C. in a humidified environment containing 10% CO2 in air. Cells were detached from the culture flask for passage and harvested using 0.05% Trypsin-EDTA (Thermo Fisher Scientific, Waltham, Mass.). To induce NaV1.7, cells were induced with tetracycline (0.1-1 μg/mL, IBI Scientific, Peosta, Iowa) the day before recording and plated onto 24-well plates. Cells were washed with DPBS (VWR, Radnor, Pa.), trypsinized and then triturated five times in 10 mL of growth media to break apart cell aggregates. For one 24-well plate, 2 mL of cell suspension was mixed with 23 mL of fresh growth media and 0.1-1 μg/mL tetracycline added. 1 ml of mixed media with cells was then added to each well of a 24-well plate, with a 12 mm coverslip already placed in the bottom of the well. Cells were then incubated in 37° C. and 10% CO2 overnight.
The intracellular solution contained the following (in mM) CsCl 135, NaCl 10, EGTA 10, HEPES 10, MgCl2 2, adjusted to pH 7.2 with CsOH. The external solution was a normal Ringer solution containing (in mM) NaCl 155, HEPES 10, glucose 10, KCl 3.5, CaCl2 1.5, MgCl2 1 adjusted to pH 7.4 with NaOH. CsCl is from Alfa Aesar, Haverhill, Mass. All other chemicals are from Sigma-Aldrich, St. Louis, Mo. In order to test the degree of internal block by test compounds the compounds were dissolved in internal solution at the indicated test concentration. […] In order to test the degree of external block by test compounds the compounds were dissolved in external solution at the indicated test concentration.
18-24 hours after cells were induced with tetracycline, coverslips were placed into a chamber filled with Normal Ringer solution at room temperature and the chamber placed on a microscope. Pipettes were pulled from borosilicate glass on a P97 puller (Sutter Instrument, Novato, Calif.) and polished with a MF-830 Microforge (Narishige International USA, Inc., Amityville, N.Y.) to have a resistance of 1.5-2.5 MΩ when filled with CsCl internal solution at room temperature. Healthy cells (those that are round and translucent with no visible blemishes) were chosen for seal formation. A seal was formed between the pipette and the cell, and a brief pulse of suction was used to “break in” and establish the whole-cell configuration. The membrane potential was held at −100 mV before the voltage protocol began. Only cells with series resistance between 1.5-5 MΩ were retained for analysis. The voltage protocol was as follows: Cells were held at −100 mV for 12 ms followed by a hyperpolarizing step to −105 mV for 12 ms to monitor the leak. Cells were then stepped back to −100 mV for 40 ms. Cells were then depolarized to −20 mV for 10 ms and then returned to −100 mV for 26 ms.
Once the recording was started, the voltage protocol was run at 30 second intervals for 5 minutes to get a stable baseline. This was followed by four 30-second periods of 5 Hz stimulation of the same voltage protocol separated by 1 minute of rest which was then followed by 0.33 Hz stimulation after the last train. Currents were recorded using PatchMaster software with Heka EPC10 (HEKA Electronics, Lambrecht, Germany). Only cells with inward current amplitudes at −20 mV between 400 pA and 4 nA were accepted. In addition, cells having leak currents greater than 10% of their current amplitudes were discarded. […]
Background: The patch-clamp technique gives a direct electrical read-out from membranes.

The nature of data set [1]: PAMPA membrane permeability assay. The data set is classed as in vitro ADME. Conditions: permeability coefficient, pH 7.4 buffer, GIT lipid, 4 hours incubation. Here is the method:
The PAMPA assay (pION, Inc., Woburn Mass.) was used to determine the ability of compounds of the invention to cross an artificial lipid membrane by passive diffusion. Test compounds were dissolved in DMSO (10 mM) and diluted 200-fold in buffer (pION Inc., pH 7.4) to provide 50 uM stock solutions. Buffer (150 μL) was added to a UV blank plate and stock solutions (150 μL) were transferred to a UV reference plate. The blank and reference spectrum were read using a spectrophotometer. Stock solutions (200 μL) were added to the donor plate of the PAMPA sandwich plate and an accept plate painted with GIT lipid (pION Inc, 5) was placed on top. Buffer (200 μL) was added to the acceptor plate and the PAMPA sandwich plate was incubated for 4 hours. Aliquots (150 μL) from the acceptor plate were added to a UV plate and read as acceptor spectrum. Aliquots (150 μL) of the donor solutions were added to a UV analysis plate and read as donor spectrum. The permeability coefficient of test compounds was calculated using PAMPA Explorer™ software (version 3.5.0.4) based on the AUC of the reference plate, the donor plate, and the acceptor plate.
The PAMPA permeability results (10^−6 cm/s) of representative compounds are reported as “+” (<0.1 10^−6 cm/s), “++” (0.1-2.0 10^−6 cm/s), “+++” (2.0-10.010^−6 cm/s) or “++++” (>10.0 10^−6 cm/s).

T1 sequence (Q15858 whole entry): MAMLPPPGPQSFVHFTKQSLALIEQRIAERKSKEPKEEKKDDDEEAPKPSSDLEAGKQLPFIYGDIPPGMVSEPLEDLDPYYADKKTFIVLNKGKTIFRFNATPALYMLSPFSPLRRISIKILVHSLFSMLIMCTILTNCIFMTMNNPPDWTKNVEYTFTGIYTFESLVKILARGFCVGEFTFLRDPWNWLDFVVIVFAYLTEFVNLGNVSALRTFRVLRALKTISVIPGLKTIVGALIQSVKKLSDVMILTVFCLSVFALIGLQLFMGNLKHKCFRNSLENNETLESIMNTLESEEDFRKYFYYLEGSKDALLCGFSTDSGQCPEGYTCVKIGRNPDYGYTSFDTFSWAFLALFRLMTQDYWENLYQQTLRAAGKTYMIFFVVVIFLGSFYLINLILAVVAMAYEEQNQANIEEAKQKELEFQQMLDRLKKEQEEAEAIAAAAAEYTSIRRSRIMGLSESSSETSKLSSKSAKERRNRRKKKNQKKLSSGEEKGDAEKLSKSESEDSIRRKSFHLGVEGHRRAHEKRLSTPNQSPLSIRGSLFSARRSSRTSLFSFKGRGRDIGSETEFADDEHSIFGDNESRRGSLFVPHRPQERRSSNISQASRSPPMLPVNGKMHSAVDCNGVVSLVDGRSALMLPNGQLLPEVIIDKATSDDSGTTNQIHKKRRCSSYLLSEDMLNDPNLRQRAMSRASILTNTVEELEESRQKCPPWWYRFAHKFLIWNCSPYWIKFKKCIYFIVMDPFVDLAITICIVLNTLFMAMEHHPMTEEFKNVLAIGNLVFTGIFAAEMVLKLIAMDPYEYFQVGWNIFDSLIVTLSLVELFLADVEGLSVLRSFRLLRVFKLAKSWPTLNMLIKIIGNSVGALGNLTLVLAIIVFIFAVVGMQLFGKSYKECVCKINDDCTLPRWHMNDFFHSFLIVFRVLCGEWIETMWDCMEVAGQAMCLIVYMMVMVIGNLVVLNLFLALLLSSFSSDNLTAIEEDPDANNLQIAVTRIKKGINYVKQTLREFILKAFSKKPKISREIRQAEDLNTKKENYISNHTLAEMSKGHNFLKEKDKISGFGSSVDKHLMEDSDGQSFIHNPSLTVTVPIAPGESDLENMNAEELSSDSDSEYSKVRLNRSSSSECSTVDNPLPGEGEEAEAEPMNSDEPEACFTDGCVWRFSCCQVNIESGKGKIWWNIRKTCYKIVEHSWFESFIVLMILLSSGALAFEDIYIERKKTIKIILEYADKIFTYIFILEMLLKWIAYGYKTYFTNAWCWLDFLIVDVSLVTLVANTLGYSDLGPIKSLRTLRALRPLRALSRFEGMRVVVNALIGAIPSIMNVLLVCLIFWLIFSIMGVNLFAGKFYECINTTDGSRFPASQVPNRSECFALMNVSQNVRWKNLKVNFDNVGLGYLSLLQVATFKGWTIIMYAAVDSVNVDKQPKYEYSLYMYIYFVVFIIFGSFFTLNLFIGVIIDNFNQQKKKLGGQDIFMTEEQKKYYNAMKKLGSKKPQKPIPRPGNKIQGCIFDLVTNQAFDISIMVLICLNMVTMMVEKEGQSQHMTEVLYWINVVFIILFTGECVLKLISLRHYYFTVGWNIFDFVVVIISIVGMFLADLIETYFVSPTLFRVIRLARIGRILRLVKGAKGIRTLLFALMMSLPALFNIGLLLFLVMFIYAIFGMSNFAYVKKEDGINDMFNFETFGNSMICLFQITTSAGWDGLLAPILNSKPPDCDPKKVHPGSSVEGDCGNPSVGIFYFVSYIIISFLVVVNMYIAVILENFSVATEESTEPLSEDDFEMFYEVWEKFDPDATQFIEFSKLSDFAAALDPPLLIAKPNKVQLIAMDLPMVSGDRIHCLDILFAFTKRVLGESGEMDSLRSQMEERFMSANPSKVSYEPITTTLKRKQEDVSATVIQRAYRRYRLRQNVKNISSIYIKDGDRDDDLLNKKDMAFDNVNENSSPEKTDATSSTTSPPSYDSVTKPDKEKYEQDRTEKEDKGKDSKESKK

With `CC[N+](CC)(CC(=O)Nc1c(C)cccc1C)Cc1ccccc1` [Compound 1A, N-benzyl-2-((2,6-dimethylphenyl)amino)-N,N-diethyl-2-oxoethan-1-aminium bromide], the inhibition – broadly, the share of the control response that was lost under treatment – at 10 µM at NaV1.7 lay within 70 to 95%.
With `Cc1cccc(C)c1NC(=O)C[N+](C)(C)Cc1ccccc1` [Compound 2A, N-benzyl-2-((2,6-dimethylphenyl)amino)-N,N-dimethyl-2-oxoethan-1-aminium bromide], the inhibition at 10 µM at NaV1.7 is 40 to 70%. The “PAMPA (10^−6 cm/s)” value in data set [1] is given as “+ (“+” (<0.1 10^−6 cm/s))”.
Turning to `Cc1cccc(C)c1NC(=O)C[N+]1(Cc2ccccc2)CCCC1.[Br-]` [Compound 5A, 1-benzyl-1-(2-((2,6-dimethylphenyl)amino)-2-oxoethyl) pyrrolidin-1-ium bromide], at NaV1.7, the inhibition at 3 µM was > 90% and the inhibition at 10 µM is 70 to 95%. For the same molecule, the “PAMPA (10^−6 cm/s)” value in data set [1] is recorded as “+ (“+” (<0.1 10^−6 cm/s))”.
Take `CCC(C(=O)Nc1c(C)cccc1C)[N+]1(Cc2ccc(F)cc2)CCCCC1` (stereo not shown) [Compound 7A]: the inhibition at 10 µM at NaV1.7 fell in the range of 70 to 95%. In addition, the “PAMPA (10^−6 cm/s)” value in data set [1] is recorded as “+ (“+” (<0.1 10^−6 cm/s))”.
As to `CCC(C(=O)Nc1c(C)cccc1C)[N+]1(Cc2cccc(F)c2)CCCCC1` (stereo not shown) [Compound 8A], the inhibition at 10 µM on NaV1.7 lay in the range of 70 to 95%. For the same molecule, the “PAMPA (10^−6 cm/s)” value in data set [1] is reported as “+ (“+” (<0.1 10^−6 cm/s))”.
On to `CCC(C(=O)Nc1c(C)cccc1C)[N+]1(Cc2ccc(Cl)cc2)CCCCC1` (stereo not shown) [Compound 10A], for which the inhibition at 10 µM on NaV1.7 is 70 to 95%. The “PAMPA (10^−6 cm/s)” value in data set [1] is recorded as “+ (“+” (<0.1 10^−6 cm/s))”.
Take `CCC(C(=O)Nc1c(C)cccc1C)[N+]1(Cc2cccc(Cl)c2)CCCCC1` (stereo not shown) [Compound 11A]: the inhibition at 10 µM on NaV1.7 is > 95%.
In the case of `CCC(C(=O)Nc1c(C)cccc1C)[N+]1(Cc2ccccc2Cl)CCCCC1` (stereo not shown) [Compound 12A], the inhibition at 10 µM on NaV1.7 was > 95%. Besides, the “PAMPA (10^−6 cm/s)” value in data set [1] is “+ (“+” (<0.1 10^−6 cm/s))”.
With `CCC(C(=O)Nc1c(C)cccc1C)[N+]1(Cc2ccc(C#N)cc2)CCCCC1` (stereo not shown) [Compound 13A], at NaV1.7, the inhibition at 10 µM was in the range of 70 to 95%. Moreover, in data set [1], the “PAMPA (10^−6 cm/s)” value is “+ (“+” (<0.1 10^−6 cm/s))”.
Turning to `CCC(C(=O)Nc1c(C)cccc1C)[N+]1(Cc2cccc(C#N)c2)CCCCC1` (stereo not shown) [Compound 14A], the inhibition at 10 µM at NaV1.7 lay in the range of 70 to 95%. Also, the “PAMPA (10^−6 cm/s)” value in data set [1] is given as “+ (“+” (<0.1 10^−6 cm/s))”.
For `CCC(C(=O)Nc1c(C)cccc1C)[N+]1(Cc2ccccc2C#N)CCCCC1` (stereo not shown) [Compound 15A], the inhibition at 10 µM on NaV1.7 was > 95%. For the same molecule, the “PAMPA (10^−6 cm/s)” value in data set [1] was “+ (“+” (<0.1 10^−6 cm/s))”.
As for `CCC(C(=O)Nc1c(C)cccc1C)[N+]1(Cc2ccc(C)cc2)CCCCC1` (stereo not shown) [Compound 16A], the inhibition at 10 µM at NaV1.7 was > 95%. Moreover, in data set [1], the “PAMPA (10^−6 cm/s)” value is “+ (“+” (<0.1 10^−6 cm/s))”.
Consider `CCC(C(=O)Nc1c(C)cccc1C)[N+]1(Cc2cccc(C)c2)CCCCC1` (stereo not shown) [Compound 17A], for which the inhibition at 10 µM at NaV1.7 is > 95%. For the same molecule, the “PAMPA (10^−6 cm/s)” value in data set [1] was “+ (“+” (<0.1 10^−6 cm/s))”.
For the molecule `CCC(C(=O)Nc1c(C)cccc1C)[N+]1(Cc2ccccc2C)CCCCC1` (stereo not shown) [Compound 18A], the inhibition at 10 µM at NaV1.7 is 70 to 95%. In addition, the “PAMPA (10^−6 cm/s)” value in data set [1] was “+ (“+” (<0.1 10^−6 cm/s))”.
As for `CCc1ccc(C[N+]2(C(CC)C(=O)Nc3c(C)cccc3C)CCCCC2)cc1` (stereo not shown) [Compound 19A], the inhibition at 10 µM on NaV1.7 is 40 to 70%. The “PAMPA (10^−6 cm/s)” value in data set [1] is listed as “+ (“+” (<0.1 10^−6 cm/s))”.
Consider `CCc1cccc(C[N+]2(C(CC)C(=O)Nc3c(C)cccc3C)CCCCC2)c1` (stereo not shown) [Compound 20A], for which, at NaV1.7, the inhibition at 3 µM is > 90% and the inhibition at 10 µM is > 95%. For the same molecule, the “PAMPA (10^−6 cm/s)” value in data set [1] was “+ (“+” (<0.1 10^−6 cm/s))”.
With `CCc1ccccc1C[N+]1(C(CC)C(=O)Nc2c(C)cccc2C)CCCCC1` (stereo not shown) [Compound 21A], at NaV1.7, the inhibition at 3 µM is > 90% and the inhibition at 10 µM is > 95%. For the same molecule, in data set [1], the “PAMPA (10^−6 cm/s)” value is given as “+ (“+” (<0.1 10^−6 cm/s))”.
Regarding `CCC(C(=O)Nc1c(C)cccc1C)[N+]1(Cc2ccc(OC)cc2)CCCCC1` (stereo not shown) [Compound 22A], on NaV1.7, the inhibition at 3 µM fell in the range of 70 to 90% and the inhibition at 10 µM is 70 to 95%.
As for `CCC(C(=O)Nc1c(C)cccc1C)[N+]1(Cc2cccc(OC)c2)CCCCC1` (stereo not shown) [Compound 23A, 1-(1-((2,6-dimethylphenyl)amino)-1-oxobutan-2-yl)-1-(3-methoxybenzyl) piperidin-1-ium bromide], the inhibition at 10 µM at NaV1.7 lay within 70 to 95%. Moreover, in data set [1], the “PAMPA (10^−6 cm/s)” value is “+ (“+” (<0.1 10^−6 cm/s))”.
Turning to `CCC(C(=O)Nc1c(C)cccc1C)[N+]1(Cc2ccccc2OC)CCCCC1` (stereo not shown) [Compound 24A, 1-(1-((2,6-dimethylphenyl)amino)-1-oxobutan-2-yl)-1-(2-methoxybenzyl) piperidin-1-ium bromide], on NaV1.7, the inhibition at 3 µM is > 90% and the inhibition at 10 µM was > 95%.
For the molecule `CCC(C(=O)Nc1c(C)cccc1C)[N+]1(Cc2cnc(C)s2)CCCCC1` (stereo not shown) [Compound 25A], the inhibition at 10 µM on NaV1.7 is 40 to 70%.
Regarding `CCC(C(=O)Nc1c(C)cccc1C)[N+]1(Cc2ccccc2O)CCCCC1` (stereo not shown) [Compound 28A, 1-(1-((2,6-dimethylphenyl)amino)-1-oxobutan-2-yl)-1-(2-hydroxybenzyl) piperidin-1-ium 2,2,2-trifluoroacetate], at NaV1.7, the inhibition at 3 µM is < 40% and the inhibition at 10 µM lay within 40 to 70%.
`CCC(C(=O)Nc1c(C)cccc1C)[N+]1(Cc2cccc(O)c2)CCCCC1` (stereo not shown) [Compound 29A, 1-(1-((2,6-dimethylphenyl)amino)-1-oxobutan-2-yl)-1-(3-hydroxybenzyl) piperidin-1-ium carbonate]: at NaV1.7, the inhibition at 3 µM is > 90% and the inhibition at 10 µM lay within 70 to 95%.
For `CCCCN(C(=O)OC(C)(C)C)c1ccc(NC(=O)C[N+]2(Cc3ccccc3)CCCCCC2)cc1` [Compound 40A, 1-benzyl-1-(2-((4-((tert-butoxycarbonyl) (butyl)amino)phenyl)amino)-2-oxoethyl) azepan-1-ium bromide], on NaV1.7, the inhibition at 10 µM was in the range of 40 to 70%.
Consider `CCCCNc1ccc(NC(=O)C[N+]2(Cc3ccccc3)CCCCC2)cc1.O=C([O-])O` [Compound 42A, 1-benzyl-1-(2-((4-(butylamino)phenyl)amino)-2-oxoethyl) piperidin-1-ium carbonate], for which the “PAMPA (10^−6 cm/s)” value in data set [1] is reported as “++ (“++” (0.1-2.0 10^−6 cm/s))”.
For the molecule `CCCCNc1cc(C)c(NC(=O)C(CC)[N+]2(Cc3ccccc3)CCCCC2)c(C)c1` (stereo not shown) [Compound 43A, 1-benzyl-1-(1-((4-(butylamino)-2,6-dimethylphenyl)amino)-1-oxobutan-2-yl) piperidin-1-ium carbonate], the inhibition at 10 µM on NaV1.7 lay within 70 to 95%.
